Experimental data reported in patent US12576087B2, “Aryloxypiperidine pyrazole compounds as indoleamine 2,3-dioxygenase inhibitors” (Merck Sharp & Dohme LLC, priority 2018, dated 2026).

molecular target: IDO1 (Homo sapiens, UniProt P14902); assay: IDO1 Human Whole Blood Assay; type: cell-based; conditions: WBLD taken as whole blood; read-out: WBLD IC50
Description: Compounds to be tested were serially diluted in ten 3-fold steps in DMSO starting from 10 mM. 3 μL of compound dilutions or DMSO alone were then dispensed from the dilution plate into a polypropylene 96-well assay plate containing 97 μL of RPMI medium using an Echo 555 acoustic liquid handler (Labcyte). LPS and IFNγ was prepared in RPMI medium to a 10× of final conc. (1000 ng/mL), final concentration is 100 ng/mL.
Human whole blood was drawn in sodium heparin coated tubes from healthy internal donors. 240 μL of blood was transferred to each of the wells of a v-bottom 96 well plate. 30 μL of compound was transferred from intermediate dilution plate, and incubated for 15 min. 30 μL from stimulants was then transferred to blood and mixed thoroughly. Plate was covered with breathable membrane and incubated at 37° C. for overnight (18 h).
On day 2, isotope labeled standard solutions of kunurenine and tryptophan was made in water at 10× concentration and 30 μL was added to the blood at 3 μM final concentration. The assay plates were centrifuged at 300×G for 10 min with no brake to separate plasma from red blood cells. 60 μL of plasma samples was removed without disturbing red blood cells. Plasma was diluted with RPMI in 1:1 ratio and proteins were precipitated out with two volumes of Acetonitrile. The plates were centrifuged at 4000×G for 60 min. 20 μL of supernatant was carefully transferred to a 384 well plate containing 40 μL of 0.1% formic acid in water and analyzed by LC/MS/MS.
LC/MS/MS analyses were performed using Thermo Fisher's LX4-TSQ Quantum Ultra system. This system consists of four Agilent binary high-performance liquid chromatography (HPLC) pumps and a TSQ Quantum Ultra triple quadrupole MS/MS instrument. For each sample, 5 μL were injected onto an Atlantis T3 column (2.1 mm×150 mm, 3 μm particle size) from Waters. The mobile phase gradient pumped at 0.8 mL/min was used to elute the analytes from the column at 25° C. The elution started at 0% B increasing linearly to 25% B at 6.5 min, holding at 25% for 1 min, re-equilibrating to 10 min. Mobile phase A consisted of 0.1% formic acid in water. Mobile phase B consisted of 0.1% of formic acid in acetonitrile. Data were acquired in positive mode using a HESI interface. The operational parameters for the TSQ Quantum Ultra instrument were a spray voltage of 4000 V, capillary temperature of 380° C., vaporizer temperature 400° C., shealth gas 60 arbitrary units, Aux gas 20 arbitrary units, tube lens 85 and collision gas 1.2 mTorr. SRM chromatograms of kynurenine (Q1: 209.2>Q3:94.0) and internal standard (Q1: 215.3>Q3:98.2) were collected for 90 sec. The peak area was integrated by Xcalibur Quan software. The ratios between the kynurenine generated in the reaction and 2D6-Kynurenine spiked-in internal standard were used to generate percentage inhibition and IC50 values. Compounds were titrated and IC50's were calculated by 4 parameter sigmoidal curve fitting formula.

Chain of IDO1 (P14902 whole entry): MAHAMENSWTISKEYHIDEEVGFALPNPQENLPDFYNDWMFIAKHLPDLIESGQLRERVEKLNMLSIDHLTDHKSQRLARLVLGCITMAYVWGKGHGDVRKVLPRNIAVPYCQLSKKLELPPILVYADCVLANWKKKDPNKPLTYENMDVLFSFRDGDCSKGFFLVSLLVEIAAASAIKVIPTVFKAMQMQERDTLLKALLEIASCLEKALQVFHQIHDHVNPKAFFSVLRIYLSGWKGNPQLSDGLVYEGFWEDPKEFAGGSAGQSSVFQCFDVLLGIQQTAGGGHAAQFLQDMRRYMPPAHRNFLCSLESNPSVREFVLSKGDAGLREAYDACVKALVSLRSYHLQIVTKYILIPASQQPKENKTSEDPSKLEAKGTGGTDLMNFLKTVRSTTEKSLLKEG

Question: Which IC50 does the source give for `Cc1ccccc1OC1CCN(C(=O)Cn2nc(C(=O)N3CCC(OCCO)CC3)c3c2CCCC3)CC1` [Example 20, 2-(3-(4-(2-hydroxyethoxy)piperidine-1-carbonyl)-4,5,6,7-tetrahydro-1H-indazol-1-yl)-1-(4-(o-tolyloxy)piperidin-1-yl)ethanone] here?
Answer: 20 nM

Question: For `Cc1ccccc1NC1CCN(C(=O)Cn2nc(C(=O)N3CCC(F)(CO)CC3)c3c2C[C@H]2C[C@@H]32)CC1` [Example 176, 2-((3bR,4aR)-3-(4-Fluoro-4-(hydroxymethyl)piperidine-1-carbonyl)-3b,4,4a,5-tetrahydro-1H-cyclopropa[3,4]cyclopenta[1,2-c]pyrazol-1-yl)-1-(4-(o-tolylamino)piperidin-1-yl)ethan-1-one], which IC50 is on record?
Answer: 396 nM

Question: How did the IC50 turn out when `Cc1cc(F)ccc1OC1CCN(C(=O)Cn2nc(C(=O)N3CCO[C@H](CO)C3)c3c2CCCC3)CC1` [Example 81, 1-[4-(4-fluoro-2-methyl-phenoxy)-1-piperidyl]-2-[3-[(2S)-2-(hydroxymethyl)morpholine-4-carbonyl]-4,5,6,7-tetrahydroindazol-1-yl]ethanone] was run?
Answer: 89.8 nM

Question: `Cc1ccccc1OC1CCN(C(=O)Cn2nc(C(=O)N3C[C@@H](C)O[C@@H](C)C3)c3c2CCC3)CC1` [Example 116, 2-{3-[(2R,6S)-2,6-dimethylmorpholine-4-carbonyl]-5,6-dihydrocyclopenta[c]pyrazol-1(4H)-yl}-1-[4-(2-methylphenoxy)piperidin-1-yl]ethan-1-one] was tested. Which IC50 did it give?
Answer: 46.8 nM
